From patent publication US12070464B2, “Methods of treating myeloproliferative disorders” (priority 2019, dated 2024)
Read-outs that look alike come from different tables or passages of the source.

Columns and labels:
[1] = tested on: CD34+ cells isolated from healthy donor bone marrow; assay: Megakaryocyte differentiation, single agent, 14 days (FACS); assay type: cell-based; settings: FIG. 2
Protocol: The effects of Compound 1 on megakaryocyte differentiation and proliferation were evaluated using CD34+ cells isolated from healthy donor bone marrow (data on file). The CD34+cells were grown in megakaryocyte differentiation serum-free stem cell differentiation base medium with a megakaryocyte-driving cytokine cocktail for 14 days with DMSO or Compound 1 at concentrations ranging from 3 nM to 500 nM. The cells were then stained for CD34 (progenitor marker), CD45 (leukocyte marker) and CD41a (mature megakaryocyte marker) and assessed by FACS for viability and marker expression. CD41a expression and cell size were used as markers of megakaryocyte differentiation. […] The shift from high to low CD41a expression began at approximately 50 nM, with pronounced effects observed at 200 to 500 nM, as shown in FIG. 2.

[2] = tested on: patients with refractory or intolerant advanced myelofibrosis; assay: Phase 2 study, Arms 1 and 2 together (monotherapy or add-on to ruxolitinib); assay type: in vivo, human
Protocol: A Phase 2 study of Compound 1 in subjects with myelofibrosis (MF) was conducted. Three treatment arms were studied:
(§1) Arm 1=monotherapy with Compound 1 in patients (pts) who are no longer on Rux and are with refractory, intolerant, or ineligible. In this arm patients were further stratified based on transfusion dependence status [transfusion dependent (TD), defined as an average of >2 units per month over 12 wks, or non-TD cohorts]. Primary endpoint: spleen volume response (SVR) for non-TD cohorts or TD to transfusion independence (TI, no transfusion for consecutive 12 wks) conversion for TD cohorts; secondary endpoints: change in total symptom score (TSS) per MFSAF v4.0, patient global impression of change (PGIC), safety and PK; additional endpoints: changes in proinflammatory Ck levels, BM morphology and mutant allele burden.
as §1, with “2=combination add-on treatment of” for “1=monotherapy with”, “already being administered Rux.” for “no longer on Rux and are with refractory, intolerant, or ineligible.”, “cohorts]. The starting dose of Compound 1 was 125 mg daily on days 1-14 of a 21-day cycle in both arms.” for “cohorts].”
The starting dose of Compound 1 was 125 mg given orally, once daily for 2 weeks on/1 week off in a 21-day dosing cycle. Two separate time points for data analysis occurred for at least Arms 1 and 2 and are discussed below: one at approximately 12 weeks of treatment (first assessment of spleen volume by MRI or CT and every 12 weeks thereafter) and another at approximately 24 weeks of treatment (first assessment of bone marrow biopsy and every 24 weeks thereafter). Patients were added to the study following the first time point.
Demographics and results are as follows: At baseline, median age: 69 years (41-88), gender: 28 (58%) male, ECOG <1: 45 (94%) patients, primary MF: 33 (69%) patients, DIPSS score high: 10 (21%) patients, median platelet: 199 x 1091 (77-895), 34 (71%) patients with Hgb <10 g/dL, median spleen volume: 2183 cc (123-3909), median TSS: 17.6 (1.4-56), 46 (96%) patients had ≥1 JAK2/MPL/CALR mutations, and 34 (71%) patients had HMR (high molecular risk) mutations. 33 (69%) patients on treatment for ≥12 wks, 4 on treatment for >18 months.

[3] = tested on: patients with refractory or intolerant myelofibrosis already being administered Rux; assay: Phase 2 study, Arm 2 (Compound 1 add-on to ruxolitinib); assay type: in vivo, human
Protocol: A Phase 2 study of Compound 1 in subjects with myelofibrosis (MF) was conducted. Three treatment arms were studied: Arm 2=combination add-on treatment of Compound 1 in patients (pts) who are already being administered Rux. In this arm patients were further stratified based on transfusion dependence status [transfusion dependent (TD), defined as an average of >2 units per month over 12 wks, or non-TD cohorts]. The starting dose of Compound 1 was 125 mg daily on days 1-14 of a 21-day cycle in both arms. Primary endpoint: spleen volume response (SVR) for non-TD cohorts or TD to transfusion independence (TI, no transfusion for consecutive 12 wks) conversion for TD cohorts; secondary endpoints: change in total symptom score (TSS) per […]4.0, patient global impression of change (PGIC), safety and PK; additional endpoints: changes in proinflammatory Ck levels, BM morphology and mutant allele burden. The starting dose of Compound 1 was 125 mg given orally, once daily for 2 weeks on/1 week off in a 21-day dosing cycle. Two separate time points for data analysis occurred for at least Arms 1 and 2 and are discussed below: one at approximately 12 weeks of treatment (first assessment of spleen volume by MRI or CT and every 12 weeks thereafter) and another at approximately 24 weeks of treatment (first assessment of bone marrow biopsy and every 24 weeks thereafter). Patients were added to the study following the first time point. Patients were added to the study following the first data cut and treatment was continued for approximately 25.9 weeks (median, range: 0.4, 116.6).

[4] = tested on: CD34+ cells isolated from the bone marrow of two healthy donors; assay: Megakaryocyte differentiation and proliferation, alone and with ruxolitinib, 10 days (FACS); assay type: cell-based; settings: 240 h, 10 days
Description: The cells were then harvested for FACS analysis with live/dead stain and gating with CD34 (progenitor marker) and CD41a and CD42b (mature megakaryocyte markers).

[5] = Time Point 2, Arms 1 and 2, FIG. 14
[6] = Time Point 1, Compound 1 with ruxolitinib

## Cc1noc2c1-c1ccccc1C(c1ccc(Cl)cc1)=N[C@H]2CC(N)=O [Compound 1, 2-((4S)-6-(4-chlorophenyl)-1-methyl-4H-benzo[c]isoxazolo[4,5-e]azepin-4-yl)acetamide]
[1]
  concentration at which shift from high to low CD41a expression began: approximately 50 nM
[2]; Time Point 1
  most common (≥20%) treatment-emergent adverse events of any Gr: diarrhea, nausea, cough and upper respiratory tract infection
  ≥3 Gr TEAE anemia: 8.3%
[2]; Time Point 1, 7 of 12 evaluable patients, as early as 6-months
  patients with improvement in BM fibrosis and/or reticulin by ≥1 Gr: 58%
[2]; Time Point 1, 11 patients
  patients with ≥50% TSS improvement: 39%
[2]; Time Point 1, 21 patients
  patients reporting much or very much improved PGIC scores: 64%
[2]; Time Point 1, 26 of 28 patients, FIG. 8 panel B
  patients with TSS improvement: 93%
[2]; Time Point 1, 28 of 33 patients
  patients with PGIC improvement score: 85%
[2]; Time Point 1, 29 of 31 patients, FIG. 8 panel A
  patients with spleen volume reduction: 94%
[2]; Time Point 1, asymptomatic, non-cumulative and generally reversible
  ≥3 Gr TEAE thrombocytopenia: 8.3%
[2]; [5]
  subjects with bone marrow fibrosis improvement: about 38%
  subjects with bone marrow fibrosis improvement as early as 6-months: about 32%
[2]; alone or add-on to ruxolitinib
  tolerability: generally well-tolerated
[3]; [6]
  TD patients converted to TI: 4 patients
  duration of TI in 2 of the converted patients: > 36 wks
[3]; Time Point 1, Compound 1 with ruxolitinib, 4 of 25
  patients with increase in hemoglobin by 1.5 mg/dL post-baseline: 16%
[3]; Time Point 2, 24 weeks, non-transfusion dependent at start, FIG. 12A
  average spleen volume reduction: about −10.9%
[3]; Time Point 2, 24 weeks, transfusion dependent at start
  average spleen volume reduction: about −24.9%
[3]; Time Point 2, 24 weeks, transfusion dependent at start, FIG. 10A
  patients converted from transfusion dependent to transfusion independent: about 35%
[3]; Time Point 2, Arm 2
  average time of conversion from TD to TI: about 14 weeks
  average transfusion free time post-conversion: about 14 weeks
  maximum transfusion free time post-conversion: 85 weeks
  patients with greater than or equal to a 50% reduction in transfusion intensity: About 41%
[3]; Time Point 2, non-transfusion dependent at start
  patients with improvement in bone marrow fibrosis: about 25%
[3]; Time Point 2, non-transfusion dependent at start, FIG. 12B
  patients with improvement in disease symptoms per TSS: About 38%
[3]; Time Point 2, non-transfusion dependent at start, FIG. 12C
  patients with improved PGIC: about 69%
[3]; Time Point 2, transfusion dependent at start, FIG. 10B
  patients with improvement in disease symptoms per TSS: About 76.5%
[3]; Time Point 2, transfusion dependent at start, FIG. 10C
  patients with improved PGIC: about 75%
[4]; Donor 1, percent of cells double positive for CD41a and CD42b, read-out: Megakaryocyte differentiation EC50
  EC50: 60 nM
[4]; Donor 1, read-out: Megakaryocyte live count EC50
  EC50: 26 nM
[4]; Donor 1, read-out: Total live count EC50
  EC50: 43 nM
[4]; Donor 1, read-out: Viability EC50
  EC50: 300 nM
[4]; Donor 2, percent of cells double positive for CD41a and CD42b, read-out: Megakaryocyte differentiation EC50
  EC50: 131 nM
[4]; Donor 2, read-out: Megakaryocyte live count EC50
  EC50: 29 nM
[4]; Donor 2, read-out: Total live count EC50
  EC50: 32 nM
[4]; Donor 2, read-out: Viability EC50
  EC50: > 500 nM
[4]; Mean of two donors, read-out: Megakaryocyte differentiation EC50
  EC50: 96 nM
[4]; Mean of two donors, read-out: Megakaryocyte live count EC50
  EC50: 28 nM
[4]; Mean of two donors, read-out: Total live count EC50 (overall cell proliferation)
  EC50: 38 nM
[4]; Mean of two donors, read-out: Viability EC50
  EC50: 400 nM
[4]; in the presence of 250 nM ruxolitinib, extrapolated, below the lowest dose tested, read-out: overall cell proliferation mean EC50 in the presence of ruxolitinib
  EC50: 17 nM
